In article PMC8948797 (International Journal of Molecular Sciences, 2022):

Test system: hALN
Assay: cytoplasmic calcium measurements (Fluo-8) in hALN
Format: cell-based, human
Conditions: 50 mM KCl, 21–30-day-old hALN, Figure S2
Text: Figure 3 Characterization of the hALN. (A) 1 s-long depolarizing, and hyperpolarizing pulses injected into a hALN neuron. […] (E) Representative image of Fluo-8-loaded cells and region of interest for individual cells for intensity measurements (white line). […] Data are presented as fluorescence intensity in arbitrary units.
To test the effect of NPFFR2 on the cytoplasmic calcium dynamics, we measured intracellular calcium concentrations using hALNs loaded with Fluo-8. Typically, neurons display calcium oscillations with synchronized patterns, as cells become mature and capable of forming electrical connections with one another. We first recorded basal spontaneous activity in 21–30-day old hALNs and observed synchronized calcium oscillations in 30–70% of cells (Figure 3D–F).
In 8 ± 3% cells, we detected no change, and the remaining 13 ± 5% cells increased their oscillation rate (n = 12).
Cytosolic (Ca2+)i was measured using Ca^2+ indicator Fluo-8. […] Baseline signal was measured at 488 nm excitation and 510 nm emission using inCell analyzer 2000 for 5 min. […] After the background subtraction, calcium responses were processed and analyzed using ImageJ. Mean intensity over time was measured in ROIs including cytoplasmic soma area of individual cells and their traceable extensions. […] Data are presented as fluorescence intensity in arbitrary units. […]

## [Cl-].[K+] [KCl]
  cytoplasmic calcium response to KCl: induced a cytoplasmic calcium transient increase
